Target: T1, human PLC-β2 (Homo sapiens, UniProt Q00722)
T1 construct: made in house; host or cells: Sf9 cells (Spodoptera frugiperda), recombinant baculovirus
Test: PLC assay using FlashPlates (96-well, immobilized [3H]PIP2 substrate)
Assay type: biochemical
Details: purified recombinant human PLC-β2 or cytosolic human PLC-β2; hydrolysis of [3H]PIP2
Description: The hydrolysis of phosphatidylinositol-4,5-bisphosphate (PIP2) by a specific phospholipase C-β2 (PLC-β2) produces two intracellular messengers, diacylglycerol (DAG) and inositol 1,4,5-trisphosphate (IP3), which mediate the activation of protein kinase C and intracellular Ca^2+ release. A conventional organic solvent extraction method is widely used for PLC assays to isolate IP3 from the substrate PIP2. The conventional PLC-β2 assay, however is terminated by addition of acidified organic solvents and subsequent extraction and phase separation. […] Accordingly, a preferred method to test the compounds of the present invention, was developed utilizing a 96-well plate assay for PLC-β2 using immobilized radiolabeled substrate to quantitatively measure the reduction in the substrate level without a need for organic solvent extraction. The automated PLC-β2 assay described herein provides a convenient method for quantitative measurement of phospholipase C activities in a high throughput fashion. Ninety-six well Phospholipid FlashPlates were coated with 0.2 mL of 50 mM Tris/HCl (pH 7.4), 0.01% Ac-BSA and 50,000 cpm of […] (phosphatidylinositol-4,5-bisphosphate) at 4° C. for 72 h. The wells were aspirated and washed twice with PBS. The reactions were conducted directly in the wells in PLC reaction buffer containing 50 mM Tris/HCl (pH 7.2), 2.75 mM EDTA (pH 7.3), 80 mM KCl, 10 mM LiCl, 0.04% DOC and 2 mM CaCl2 in the absence or presence of the purified recombinant human PLC-β2 (prepared as described hereafter) or cytosolic human PLC-β2 from […]. Reduction of radioactivity was monitored by a Packard TopCount instrument (Packard Instrument Company, Conn., USA). […] The cells were grown in Grace's media supplemented with 10% (v/v) fetal bovine serum, 3.3 g/l yeastolate, 3.3 g/l lactalbumin hydrosylate, glutamine (6.4 mM final), 50 μg/ml gentamicin, and 50 μg/ml kanamycin. Suspension of Sf9 cells (1.0×10^6 cells/ml) were infected with 5 pfu/cell of recombinant baculovirus encoding PLC-β2 and incubated at 27° C. for 72 h. The cells were collected by centrifugation (500×g, 7 min, 4° C.) and disrupted by hypotonic lysis buffer containing 20 mM Tris/HCl, pH 7.4, 5 mM MgCl2, 2 mM EGTA, 200 μM PMSF, 200 μM benzamidine and 1 μM pepstatin A. The lysate was sonicated on ice and the nuclei and unbroken cells removed by centrifigation (500×g, 5 min, 4C.). The supernatant was recovered and clarified by centrifugation (34,000 rpm, 60 min, 4C.). The supernatant was used as a crude cytosolic fraction (Paterson, A., Boyer, J. L., Watts, V. J., Morris, A. J., Price, […]. (1995) Concentration of enzyme-dependent activation of PLC β1 and PLC β2 by Gα11 and βγ subunits. Cellular Signalling 7, 709-720). Crude cytosol prepared from Sf9 cells expressing PLC-β2 was purified initially by chromatography on a 10 ml column of Q-Sepharose FF, equilibrated in buffer A (25 mM HEPES, pH 7.2,2 mM DTT, 2 mM EDTA, 2 mM EGTA, 200 μM PMSF, 200 μM benzamidine, 1 μM pepstatin A containing 10 mM NaCl). The column was washed with 20 ml of equilibration buffer and eluted with a 200-ml gradient of 110-410 mM NaCl in buffer A. The fractions containing PLC activity were pooled and diluted with buffer A. The diluted enzyme was applied to a 4 ml column of heparin-SepharoseCL-6B equilibrated in buffer A and the column washed with 70 ml of buffer A. The column was eluted with 80 ml of gradient of 0-1.0 M NaCl in buffer A, the column eluate collected in 3 ml fractions. […]

T1 sequence (Q00722 whole entry): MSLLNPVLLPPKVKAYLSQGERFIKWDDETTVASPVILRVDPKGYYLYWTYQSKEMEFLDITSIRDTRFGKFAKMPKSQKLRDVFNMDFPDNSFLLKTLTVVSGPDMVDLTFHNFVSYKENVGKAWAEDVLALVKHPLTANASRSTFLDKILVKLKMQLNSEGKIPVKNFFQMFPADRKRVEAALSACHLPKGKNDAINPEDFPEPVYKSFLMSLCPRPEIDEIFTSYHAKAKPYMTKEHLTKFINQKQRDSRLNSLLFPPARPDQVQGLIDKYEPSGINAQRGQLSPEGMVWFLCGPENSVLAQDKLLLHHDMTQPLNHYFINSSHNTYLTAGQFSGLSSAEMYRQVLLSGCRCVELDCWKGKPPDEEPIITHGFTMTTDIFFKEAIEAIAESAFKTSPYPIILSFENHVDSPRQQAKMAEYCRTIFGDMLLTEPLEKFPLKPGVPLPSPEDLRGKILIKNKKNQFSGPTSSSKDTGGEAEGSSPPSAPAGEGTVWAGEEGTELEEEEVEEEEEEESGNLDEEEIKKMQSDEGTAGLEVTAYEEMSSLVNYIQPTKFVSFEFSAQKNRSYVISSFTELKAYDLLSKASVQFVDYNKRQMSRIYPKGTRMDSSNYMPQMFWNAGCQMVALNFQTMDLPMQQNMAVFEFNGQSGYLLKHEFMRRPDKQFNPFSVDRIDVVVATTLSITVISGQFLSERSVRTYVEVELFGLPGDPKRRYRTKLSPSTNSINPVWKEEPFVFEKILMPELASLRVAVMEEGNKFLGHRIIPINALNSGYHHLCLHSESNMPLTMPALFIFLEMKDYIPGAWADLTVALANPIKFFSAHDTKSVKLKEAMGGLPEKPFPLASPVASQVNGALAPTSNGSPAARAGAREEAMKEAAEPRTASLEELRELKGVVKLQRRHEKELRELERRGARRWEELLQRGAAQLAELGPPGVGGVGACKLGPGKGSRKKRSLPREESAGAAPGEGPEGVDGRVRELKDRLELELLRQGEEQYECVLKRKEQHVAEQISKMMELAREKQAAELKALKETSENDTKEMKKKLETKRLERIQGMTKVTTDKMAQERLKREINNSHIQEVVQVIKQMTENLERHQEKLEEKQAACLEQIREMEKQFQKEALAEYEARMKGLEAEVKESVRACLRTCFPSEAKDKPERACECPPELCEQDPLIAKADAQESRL

SMILES | IC50
NC(=O)c1ccc(N2CCN(C(c3ccccc3)c3ccccc3)CC2)c(NC(=O)NC2CCCCC2)c1 [Cpd 10, 3-[[(cyclohexylamino)carbonyl]amino]-4-[4-(diphenylmethyl)-1-piperazinyl]-benzamide] | 14 µM
CC(c1ccccc1)N1CCN(c2ccc(C(=O)N3CCNCC3)cc2NC(=O)NC2CCCCC2)CC1 (centres unmarked) [Cpd 53, N-cyclohexyl-N′-[2-[4-(1-phenylethyl)-1-piperazinyl]-5-(1-piperazinylcarbonyl)phenyl]-urea] | > 25 µM
CN(C)CCNC(=O)c1ccc(N2CCN(C(c3ccccc3)c3ccccc3)CC2)c(NC(=O)NC2CCCCC2)c1 [Cpd 30, 3-[[(cyclohexylamino)carbonyl]amino]-N-[2-(dimethylamino)ethyl]-4-[4-(diphenylmethyl)-1-piperazinyl]-benzamide] | 9.8 µM
COc1ccc(NC(=O)Nc2cc(C(N)=O)ccc2N2CCN(C(c3ccc(F)cc3)c3ccc(F)cc3)CC2)c(OC)c1 [Cpd 18, 4-[4-[bis(4-fluorophenyl)methyl]-1-piperazinyl]-3-[[[(2,4-dimethoxyphenyl)amino]carbonyl]amino]-benzamide] | 4.6 µM
NC(=O)c1ccc(N2CCCN(C(c3ccc(F)cc3)c3ccc(F)cc3)CC2)c(NC(=O)Nc2ccccc2)c1 [Cpd 81, 4-[4-[bis(4-fluorophenyl)methyl]hexahydro-1H-1,4-diazepin-1-yl]-3-[[(phenylamino)carbonyl]amino]-benzamide] | ~10 µM
COc1ccccc1N1CCN(c2ccc(C(=O)N3CCNCC3)cc2NC(=O)Nc2ccccc2)CC1 [Cpd 49, N-[2-[4-(2-methoxyphenyl)-1-piperazinyl]-5-(1-piperazinylcarbonyl)phenyl]-N′-phenylurea] | > 25 µM
CCCCNC(=O)Nc1cc(C(N)=O)ccc1N1CCN(C(c2ccccc2)c2ccccc2)CC1 [Cpd 12, 3-[[(butylamino)carbonyl]amino]-4-[4-(diphenylmethyl)-1-piperazinyl]-benzamide] | 14.5 µM
O=C(Nc1cc(C(=O)N2CCNCC2)ccc1N1CCN(Cc2ccccc2)CC1)NC1CCCCC1 [Cpd 52, N-cyclohexyl-N′-[2-[4-(phenylmethyl)-1-piperazinyl]-5-(1-piperazinylcarbonyl)phenyl]-urea] | > 25 µM
O=C(Nc1cc(C(=O)N2CCNCC2)ccc1N1CCN(C(c2ccc(F)cc2)c2ccc(F)cc2)CC1)NC1CCCCC1 [Cpd 47, N-[2-[4-[bis(4-fluorophenyl)methyl]-1-piperazinyl]-5-(1-piperazinylcarbonyl)phenyl]-N′-cyclohexylurea] | 4.2 µM
O=C(c1ccc(N2CCN(C(c3ccccc3)c3ccccc3)CC2)c(NC(=S)NCc2ccccc2)c1)N1CCNCC1 [Cpd 65, N-[2-[4-(diphenylmethyl)-1-piperazinyl]-5-(1-piperazinylcarbonyl)phenyl]-N′-(phenylmethyl)thiourea] | 6.2 µM
O=C(Nc1cc(C(=O)N2CCNCC2)ccc1N1CCN(C2CCCCC2)CC1)NC1CCCCC1 [Cpd 54, N-cyclohexyl-N′-[2-(4-cyclohexyl-1-piperazinyl)-5-(1-piperazinylcarbonyl)phenyl]-urea] | > 25 µM
NC(=O)c1ccc(N2CCN(C(c3ccccc3)c3ccccc3)CC2)c(NC(=O)Nc2ccc([N+](=O)[O-])cc2)c1 [Cpd 5, 4-[4-(diphenylmethyl)-1-piperazinyl]-3-[[[(4-nitrophenyl)amino]carbonyl]amino]-benzamide] | 9.9 µM
CC(C)(C)NC(=O)Nc1cc(C(=O)N2CCNCC2)ccc1N1CCN(C(c2ccccc2)c2ccccc2)CC1 [Cpd 62, N-(1,1-dimethylethyl)-N′-[2-[4-(diphenylmethyl)-1-piperazinyl]-5-(1-piperazinylcarbonyl)phenyl]-urea] | > 25 µM
COc1ccccc1N1CCN(c2ccc(C(N)=O)cc2NC(=O)Nc2ccccc2)CC1 [Cpd 1, 4-[4-(2-methoxyphenyl)-1-piperazinyl]-3-[[(phenylamino)carbonyl]amino]-benzamide] | 23.4 µM
NC(=O)c1ccc(N2CCCN(C(c3ccc(F)cc3)c3ccc(F)cc3)CC2)c(NC(=O)NC2CCCCC2)c1 [Cpd 82, 4-[4-[bis(4-fluorophenyl)methyl]hexahydro-1H-1,4-diazepin-1-yl]-3-[[(cyclohexylamino)carbonyl]amino]-benzamide] | ~10 µM
NC(=O)c1ccc(N2CCN(C(c3ccncc3)c3ccc(F)cc3)CC2)c(NC(=O)Nc2ccccc2)c1 (centres unmarked) [Cpd 77, 4-[4-[(4-fluorophenyl)-4-pyridinylmethyl]-1-piperazinyl]-3-[[(phenylamino)carbonyl]amino]-benzamide] | ~10 µM

Now those with a lower IC50, led by results:

IC50 | SMILES
2.9 µM | CN(C)c1ccc(NC(=O)Nc2cc(C(N)=O)ccc2N2CCN(C(c3ccc(F)cc3)c3ccc(F)cc3)CC2)cc1 [Cpd 19, 4-[4-[bis(4-fluorophenyl)methyl]-1-piperazinyl]-3-[[[[4-(dimethylamino)phenyl]amino]carbonyl]amino]-benzamide]
2.3 µM | O=C(Nc1ccccc1)Nc1cc(C(=O)N2CCNCC2)ccc1N1CCN(C2c3ccccc3-c3ccccc32)CC1 [Cpd 44, N-[2-[4-(9H-fluoren-9-yl)-1-piperazinyl]-5-(1-piperazinylcarbonyl)phenyl]-N′-phenylurea]
2.2 µM | O=C(Nc1cc(C(=O)N2CCNCC2)ccc1N1CCN(C(c2ccccc2)c2ccc(Cl)cc2)CC1)NC1CCCCC1 (centres unmarked) [Cpd 45, N-[2-[4-[(4-chlorophenyl)phenylmethyl]-1-piperazinyl]-5-(1-piperazinylcarbonyl)phenyl]-N′-cyclohexyl-urea]
1.7 µM | O=C(Nc1ccccc1)Nc1cc(C(=O)N2CCNCC2)ccc1N1CCN(C(c2ccc(F)cc2)c2ccc(F)cc2)CC1 [Cpd 46, N-[2-[4-[bis(4-fluorophenyl)methyl]-1-piperazinyl]-5-(1-piperazinylcarbonyl)phenyl]-N′-phenylurea]
1.6 µM | O=C(Nc1ccc(C(=O)N2CCNCC2)cc1N1CCN(C(c2ccccc2)c2ccccc2)CC1)NC1CCCCC1 [Cpd 92, N-cyclohexyl-N′-[2-[4-(diphenylmethyl)-1-piperazinyl]-4-(1-piperazinylcarbonyl)phenyl]-urea]
1.6 µM | Cc1ccc(NC(=O)Nc2cc(C(=O)N3CCNCC3)ccc2N2CCN(C(c3ccccc3)c3ccccc3)CC2)c(C)c1 [Cpd 41, N-(2,4-dimethylphenyl)-N′-[2-[4-(diphenylmethyl)-1-piperazinyl]-5-(1-piperazinylcarbonyl)phenyl]-urea]
1.3 µM | NC(=O)c1ccc(N2CCN(C(c3ccccc3)c3ccccc3)CC2)c(NC(=O)Nc2ccc(F)cc2)c1 [Cpd 13, 4-[4-(diphenylmethyl)-1-piperazinyl]-3-[[[(4-fluorophenyl)amino]carbonyl]amino]-benzamide]
1.2 µM | NC(=O)c1ccc(N2CCN(C(c3ccccc3)c3ccccc3)CC2)c(NC(=O)Nc2ccccc2)c1 [Cpd 8, 4-[4-(diphenylmethyl)-1-piperazinyl]-3-[[(phenylamino)carbonyl]amino]-benzamide]
0.98 µM | O=C(Nc1ccccc1)Nc1ccc(C(=O)N2CCNCC2)cc1N1CCN(C(c2ccc(F)cc2)c2ccc(F)cc2)CC1 [Cpd 90, N-[2-[4-[bis(4-fluorophenyl)methyl]-1-piperazinyl]-4-(1-piperazinylcarbonyl)phenyl]-N′-phenyl-urea]
0.81 µM | O=C(Nc1ccccc1)Nc1ccc(C(=O)N2CCNCC2)cc1N1CCCN(C(c2ccc(F)cc2)c2ccc(F)cc2)CC1 [Cpd 89, N-[2-[4-[bis(4-fluorophenyl)methyl]hexahydro-1H-1,4-diazepin-1-yl]-4-(1-piperazinylcarbonyl)phenyl]-N′-phenyl-urea]
